Measurements published in article PMC10009787 (ACS Medicinal Chemistry Letters, 2023).
Read-outs that look alike come from different tables or passages of the source.

Key:
RET M918T = RET M918T (Homo sapiens, UniProt P07949, M918T); assay: SelectScreen kinase profiling; format: biochemical; details: average of duplicate
FGFR3 = FGFR3 (Homo sapiens, UniProt P22607); assay: SelectScreen kinase profiling; format: biochemical; details: average of duplicate
ERBB4 (HER4) = ERBB4 (HER4) (Homo sapiens, UniProt Q15303); assay: SelectScreen kinase profiling; format: biochemical; details: average of duplicate
Chain of ERBB4 (HER4) (Q15303 26-1308): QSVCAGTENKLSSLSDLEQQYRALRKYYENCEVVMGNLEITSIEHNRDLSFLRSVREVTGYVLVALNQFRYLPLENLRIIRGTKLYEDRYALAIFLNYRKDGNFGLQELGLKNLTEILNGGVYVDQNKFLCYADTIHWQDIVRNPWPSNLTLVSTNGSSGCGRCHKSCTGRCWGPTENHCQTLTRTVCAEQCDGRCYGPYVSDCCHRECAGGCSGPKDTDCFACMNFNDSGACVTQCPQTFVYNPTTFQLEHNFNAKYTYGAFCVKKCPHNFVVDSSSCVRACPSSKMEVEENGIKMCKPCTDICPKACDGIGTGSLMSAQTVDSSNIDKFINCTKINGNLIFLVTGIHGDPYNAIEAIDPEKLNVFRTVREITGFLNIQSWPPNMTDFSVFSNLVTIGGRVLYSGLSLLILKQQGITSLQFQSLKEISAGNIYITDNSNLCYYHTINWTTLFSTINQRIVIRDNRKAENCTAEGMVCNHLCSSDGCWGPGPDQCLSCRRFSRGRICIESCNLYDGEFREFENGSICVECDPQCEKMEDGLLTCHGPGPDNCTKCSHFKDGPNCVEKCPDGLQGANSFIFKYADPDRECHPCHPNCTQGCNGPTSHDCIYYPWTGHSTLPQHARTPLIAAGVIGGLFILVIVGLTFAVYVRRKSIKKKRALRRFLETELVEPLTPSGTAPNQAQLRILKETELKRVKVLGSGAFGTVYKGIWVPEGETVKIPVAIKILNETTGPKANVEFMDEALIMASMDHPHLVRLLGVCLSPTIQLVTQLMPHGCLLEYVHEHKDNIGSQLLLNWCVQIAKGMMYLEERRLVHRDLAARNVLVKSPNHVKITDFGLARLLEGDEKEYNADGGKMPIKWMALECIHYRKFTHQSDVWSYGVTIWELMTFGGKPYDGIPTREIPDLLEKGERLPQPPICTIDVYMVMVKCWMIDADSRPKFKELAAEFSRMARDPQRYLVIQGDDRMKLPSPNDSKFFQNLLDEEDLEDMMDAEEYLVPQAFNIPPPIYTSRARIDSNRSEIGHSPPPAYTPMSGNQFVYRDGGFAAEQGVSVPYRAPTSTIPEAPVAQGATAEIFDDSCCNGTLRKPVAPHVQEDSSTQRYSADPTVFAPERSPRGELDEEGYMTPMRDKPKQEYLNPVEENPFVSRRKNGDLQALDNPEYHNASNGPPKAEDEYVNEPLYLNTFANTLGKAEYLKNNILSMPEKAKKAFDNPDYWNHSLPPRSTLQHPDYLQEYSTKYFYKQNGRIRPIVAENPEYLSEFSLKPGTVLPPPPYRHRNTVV

BTK = BTK (Homo sapiens, UniProt Q06187); assay: SelectScreen kinase profiling / Z′-Lyte kinase assay
Chain of BTK (Q06187 whole entry): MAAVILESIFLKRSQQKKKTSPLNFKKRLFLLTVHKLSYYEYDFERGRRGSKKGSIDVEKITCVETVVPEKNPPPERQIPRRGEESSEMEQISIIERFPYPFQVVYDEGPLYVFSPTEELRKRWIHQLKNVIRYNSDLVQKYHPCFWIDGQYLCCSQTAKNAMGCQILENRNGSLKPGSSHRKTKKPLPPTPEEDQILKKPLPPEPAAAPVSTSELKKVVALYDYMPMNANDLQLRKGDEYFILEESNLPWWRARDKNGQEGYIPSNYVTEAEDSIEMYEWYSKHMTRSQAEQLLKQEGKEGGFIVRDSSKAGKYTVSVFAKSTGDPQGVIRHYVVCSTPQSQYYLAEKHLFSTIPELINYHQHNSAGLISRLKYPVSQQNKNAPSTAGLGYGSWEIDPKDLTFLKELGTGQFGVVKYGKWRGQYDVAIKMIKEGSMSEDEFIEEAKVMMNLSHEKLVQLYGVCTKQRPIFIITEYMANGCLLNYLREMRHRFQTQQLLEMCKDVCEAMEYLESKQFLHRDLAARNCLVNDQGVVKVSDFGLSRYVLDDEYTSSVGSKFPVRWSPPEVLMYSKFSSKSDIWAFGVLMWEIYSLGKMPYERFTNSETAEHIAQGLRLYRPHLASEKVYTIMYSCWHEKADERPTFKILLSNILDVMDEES

RET = RET (Homo sapiens, UniProt P07949); assay: SelectScreen kinase profiling; format: biochemical; details: average of duplicate
Chain of RET (P07949 29-1114): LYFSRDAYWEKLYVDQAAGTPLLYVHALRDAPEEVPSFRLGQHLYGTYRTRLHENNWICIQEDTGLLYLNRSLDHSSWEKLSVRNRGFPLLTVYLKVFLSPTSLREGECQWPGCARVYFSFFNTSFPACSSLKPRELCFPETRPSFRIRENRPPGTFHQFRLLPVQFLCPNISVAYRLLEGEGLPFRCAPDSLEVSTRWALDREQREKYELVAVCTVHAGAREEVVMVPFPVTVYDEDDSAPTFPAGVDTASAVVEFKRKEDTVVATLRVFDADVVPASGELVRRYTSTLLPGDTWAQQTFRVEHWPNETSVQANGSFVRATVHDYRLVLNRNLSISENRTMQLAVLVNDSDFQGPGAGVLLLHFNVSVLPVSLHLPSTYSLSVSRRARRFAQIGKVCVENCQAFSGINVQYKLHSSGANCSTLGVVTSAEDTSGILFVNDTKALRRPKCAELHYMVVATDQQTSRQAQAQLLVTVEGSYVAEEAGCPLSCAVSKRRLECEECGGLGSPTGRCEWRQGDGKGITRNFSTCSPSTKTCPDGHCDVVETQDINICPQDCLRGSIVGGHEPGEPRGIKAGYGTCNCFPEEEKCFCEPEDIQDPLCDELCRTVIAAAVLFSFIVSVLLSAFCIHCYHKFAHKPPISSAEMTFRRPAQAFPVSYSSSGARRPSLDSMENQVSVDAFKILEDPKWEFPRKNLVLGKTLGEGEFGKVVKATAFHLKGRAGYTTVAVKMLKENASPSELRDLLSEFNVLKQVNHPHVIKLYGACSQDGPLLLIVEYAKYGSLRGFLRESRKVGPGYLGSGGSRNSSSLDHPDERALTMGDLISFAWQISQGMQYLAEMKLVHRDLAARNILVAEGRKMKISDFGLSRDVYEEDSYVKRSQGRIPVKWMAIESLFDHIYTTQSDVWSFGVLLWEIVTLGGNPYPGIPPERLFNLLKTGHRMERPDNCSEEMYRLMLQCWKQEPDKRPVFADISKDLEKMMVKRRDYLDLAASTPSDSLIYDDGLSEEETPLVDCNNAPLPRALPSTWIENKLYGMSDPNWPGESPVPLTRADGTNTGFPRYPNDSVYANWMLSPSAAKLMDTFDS

SRC = SRC (Homo sapiens, UniProt P12931); assay: SelectScreen kinase profiling / Z′-Lyte kinase assay
Chain of SRC (P12931 whole entry): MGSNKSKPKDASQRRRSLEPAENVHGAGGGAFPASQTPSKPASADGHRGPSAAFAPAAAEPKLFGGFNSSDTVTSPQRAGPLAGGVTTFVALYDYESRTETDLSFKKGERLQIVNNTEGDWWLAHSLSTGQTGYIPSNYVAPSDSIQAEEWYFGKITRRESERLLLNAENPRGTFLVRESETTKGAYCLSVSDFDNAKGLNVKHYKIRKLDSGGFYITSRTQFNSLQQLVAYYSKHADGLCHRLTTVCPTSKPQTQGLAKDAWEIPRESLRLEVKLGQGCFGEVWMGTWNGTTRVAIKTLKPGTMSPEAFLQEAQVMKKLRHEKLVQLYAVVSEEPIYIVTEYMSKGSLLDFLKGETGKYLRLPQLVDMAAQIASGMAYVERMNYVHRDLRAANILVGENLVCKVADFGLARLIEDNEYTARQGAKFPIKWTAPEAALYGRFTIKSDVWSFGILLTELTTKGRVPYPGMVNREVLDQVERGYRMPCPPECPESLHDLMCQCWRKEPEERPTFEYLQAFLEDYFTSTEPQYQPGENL

Chain of RET M918T (P07949 658-1114 M918T limits assumed): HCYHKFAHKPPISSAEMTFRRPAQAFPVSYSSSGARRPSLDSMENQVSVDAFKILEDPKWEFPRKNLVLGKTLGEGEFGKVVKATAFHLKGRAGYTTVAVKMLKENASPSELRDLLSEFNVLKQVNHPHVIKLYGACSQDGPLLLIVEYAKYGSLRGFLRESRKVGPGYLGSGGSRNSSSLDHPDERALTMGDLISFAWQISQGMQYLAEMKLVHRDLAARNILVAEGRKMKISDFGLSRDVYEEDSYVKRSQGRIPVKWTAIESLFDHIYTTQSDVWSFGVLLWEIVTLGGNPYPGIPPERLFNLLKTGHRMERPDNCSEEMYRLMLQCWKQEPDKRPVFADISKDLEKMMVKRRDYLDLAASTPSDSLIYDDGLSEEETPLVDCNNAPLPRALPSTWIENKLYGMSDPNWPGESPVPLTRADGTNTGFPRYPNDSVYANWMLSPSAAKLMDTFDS
Chain of FGFR3 (P22607 23-806): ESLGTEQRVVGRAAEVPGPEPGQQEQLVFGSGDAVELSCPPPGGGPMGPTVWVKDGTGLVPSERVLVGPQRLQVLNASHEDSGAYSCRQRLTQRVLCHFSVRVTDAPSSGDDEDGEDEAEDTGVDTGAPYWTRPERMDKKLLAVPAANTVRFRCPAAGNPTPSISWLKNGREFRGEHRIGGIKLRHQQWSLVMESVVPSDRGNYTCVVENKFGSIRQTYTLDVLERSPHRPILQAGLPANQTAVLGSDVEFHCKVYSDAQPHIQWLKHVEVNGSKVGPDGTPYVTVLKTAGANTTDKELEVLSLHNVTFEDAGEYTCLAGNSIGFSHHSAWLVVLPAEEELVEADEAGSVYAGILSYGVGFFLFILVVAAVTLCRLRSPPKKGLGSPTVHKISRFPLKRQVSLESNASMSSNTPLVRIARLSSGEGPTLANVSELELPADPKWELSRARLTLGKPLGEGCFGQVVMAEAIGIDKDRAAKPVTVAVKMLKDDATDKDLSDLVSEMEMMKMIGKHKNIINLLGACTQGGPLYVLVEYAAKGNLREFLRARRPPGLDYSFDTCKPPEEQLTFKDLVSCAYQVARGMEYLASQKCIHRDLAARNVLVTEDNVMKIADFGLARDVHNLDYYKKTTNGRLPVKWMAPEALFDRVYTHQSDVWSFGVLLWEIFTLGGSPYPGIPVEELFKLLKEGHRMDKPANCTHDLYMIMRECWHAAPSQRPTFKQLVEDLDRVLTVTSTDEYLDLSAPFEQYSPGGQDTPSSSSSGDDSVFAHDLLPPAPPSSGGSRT

An inhibition at 1 µM (RET M918T) of 6%, an inhibition at 1 µM (FGFR3) of 3% and an inhibition at 1 µM (ERBB4 (HER4)) of 93% were found for C=CC(=O)N1CCCC(n2nc(-c3c(C)cc(Oc4ccccc4)cc3C)c3c(N)ncnc32)C1 (stereo in doubt) [Compound 3] in this work. The inhibition at 1 µM (BTK) was 100%, the IC50 (BTK; BTK IC50, Z′-Lyte, [ATP] Km app, 1 h incubation, duplicate) was 12.8 nM and the Hillslope (BTK; BTK IC50 curve) was 1.25. It also gave an inhibition at 0.000495 µM (BTK; read-out: % Inhibition Point 1) of -4%, an inhibition at 0.00152 µM (BTK; read-out: % Inhibition Point 1) of 11% and an inhibition at 0.00457 µM (BTK; read-out: % Inhibition Point 1) of 23%. The inhibition at 0.0137 µM (BTK; read-out: % Inhibition Point 1) was 49%, the inhibition at 0.0412 µM (BTK; read-out: % Inhibition Point 1) was 84% and the inhibition at 0.123 µM (BTK; read-out: % Inhibition Point 1) was 97%. The inhibition at 0.37 µM (BTK; read-out: % Inhibition Point 1) was 98%, the inhibition at 1.11 µM (BTK; read-out: % Inhibition Point 1) was 100% and the inhibition at 3.33 µM (BTK; read-out: % Inhibition Point 1) was 98%. For the same compound, the inhibition at 10 µM (BTK; read-out: % Inhibition Point 1) was 98%, the inhibition at 0.000495 µM (BTK; read-out: % Inhibition Point 2) was 1% and the inhibition at 0.00152 µM (BTK; read-out: % Inhibition Point 2) was 5%. It also gave an inhibition at 0.00457 µM (BTK; read-out: % Inhibition Point 2) of 22%, an inhibition at 0.0137 µM (BTK; read-out: % Inhibition Point 2) of 49% and an inhibition at 0.0412 µM (BTK; read-out: % Inhibition Point 2) of 80%. It also gave an inhibition at 0.123 µM (BTK; read-out: % Inhibition Point 2) of 96%, an inhibition at 0.37 µM (BTK; read-out: % Inhibition Point 2) of 98% and an inhibition at 1.11 µM (BTK; read-out: % Inhibition Point 2) of 102%. The inhibition at 3.33 µM (BTK; read-out: % Inhibition Point 2) was 97%, the inhibition at 10 µM (BTK; read-out: % Inhibition Point 2) was 99% and the inhibition at 1 µM (RET) was 5%. For the same compound, the IC50 (SRC) was 1710 nM, the inhibition at 1 µM (SRC) was 43% and the “SRC, BTK/Kinase” value (SRC; BTK selectivity from IC50 values) was 134 x. It also gave a Hillslope (SRC; SRC IC50 curve) of 0.49, an inhibition at 0.000495 µM (SRC; read-out: % Inhibition Point 1) of 2% and an inhibition at 0.00152 µM (SRC; read-out: % Inhibition Point 1) of 15%. It also gave an inhibition at 0.00457 µM (SRC; read-out: % Inhibition Point 1) of 19%, an inhibition at 0.0137 µM (SRC; read-out: % Inhibition Point 1) of 23% and an inhibition at 0.0412 µM (SRC; read-out: % Inhibition Point 1) of 19%. The inhibition at 0.123 µM (SRC; read-out: % Inhibition Point 1) was 30%, the inhibition at 0.37 µM (SRC; read-out: % Inhibition Point 1) was 38% and the inhibition at 1.11 µM (SRC; read-out: % Inhibition Point 1) was 57%. It also gave an inhibition at 3.33 µM (SRC; read-out: % Inhibition Point 1) of 76%, an inhibition at 10 µM (SRC; read-out: % Inhibition Point 1) of 80% and an inhibition at 0.000495 µM (SRC; read-out: % Inhibition Point 2) of -2%. It also gave an inhibition at 0.00152 µM (SRC; read-out: % Inhibition Point 2) of 9%, an inhibition at 0.00457 µM (SRC; read-out: % Inhibition Point 2) of 20% and an inhibition at 0.0137 µM (SRC; read-out: % Inhibition Point 2) of 18%. It also gave an inhibition at 0.0412 µM (SRC; read-out: % Inhibition Point 2) of 20%, an inhibition at 0.123 µM (SRC; read-out: % Inhibition Point 2) of 28% and an inhibition at 0.37 µM (SRC; read-out: % Inhibition Point 2) of 42%. The inhibition at 1.11 µM (SRC; read-out: % Inhibition Point 2) was 58%, the inhibition at 3.33 µM (SRC; read-out: % Inhibition Point 2) was 81% and the inhibition at 10 µM (SRC; read-out: % Inhibition Point 2) was 88%. For the same compound, the remaining activity at 1 µM (SRC; read-out: SRC percent of control) was 57%.
